Experimental data from patent publication US7071168B2, “Anti-cancer compounds and methods related thereto” (The Regents of the University of Colorado, priority 1998, dated 2006).

How the values were obtained:
SCLC strain SHP-77 = assay: Colorimetric tetrazolium (MTT) assay for cell survival, SCLC strain SHP-77; type: cell-based, human
Outline: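 MTT assay: cells seeded overnight, treated in triplicate across a concentration range for 4 days at 37 °C, 5% CO2. On day 5, MTT was added for 4 h; formazan was dissolved in acidified isopropanol and absorbance read.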

[1] = system: bradykinin response of isolated guinea pig ileum; assay: Anti-bradykinin activity on isolated guinea pig ileum
Outline: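 Terminal ileum segments (25 mm) from overnight-fasted male Hartley guinea pigs, in Krebs' solution gassed with 95% O2/5% CO2 under 1 g tension, equilibrated 1 h. Bradykinin concentration-effect curves constructed without and with test compounds.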

[2] = Table 1, higher numbers indicate higher potency
[3] = isolated guinea pig ileum, pD2 of bradykinin is 7.4, higher numbers indicate higher potency

| Compound | MTT: ED50 for killing of SCLC strain SHP-77 in vitro (SCLC strain SHP-77; Table 1, SHP-77, MTT, 4 days) | GPI: pA2 for bradykinin antagonist activity on isolated guinea pig ileum [1, 2] | MTT: ED50 for killing of SCLC strain SHP-77 in vitro (SCLC strain SHP-77; SCLC strain SHP-77 in vitro) | GPI: pA2 for bradykinin antagonist activity on isolated guinea pig ileum [1, 3] | further results |
| --- | --- | --- | --- | --- | --- |
| F5c-DArg-Arg-Aud-DIgl-hPhe-Arg [M774] | 8 µM | Inact | – | – | – |
| CC1(C)CC(NC(=O)[C@H](Cc2ccc3ccccc3c2)NC(=NC2CCCCC2)NC2CCCCC2)(C(=O)O)CC(C)(C)N1 [M244B] | – | – | Inact | 4.9 | – |
| CC1(C)CC(NC(=O)[C@@H](NC(=N)CCCCCCCCCCCCC(=N)N[C@H](C(=O)NC2CC(C)(C)NC(C)(C)C2)C2Cc3ccccc3C2)C2Cc3ccccc3C2)CC(C)(C)N1 [M280] | – | – | 6 µM | 5.2 | – |
| Aaa-DPhe-hPhe-Arg [M754] | Inact | 4.6 | – | – | – |
| c[DArg-Arg-Ava-Ser-DIgl-PFF-Arg] [M902] | – | – | – | – | MTT: ED50 for killing of SCLC strain SHP-77 in vitro (SCLC strain SHP-77; Table 3, cyclic peptides): 30 µM; GPI: pA2 for bradykinin antagonist activity on isolated guinea pig ileum ([1]; Table 3, cyclic peptides): 5.5 |
| COC(=O)C1(NC(=O)[C@H](Cc2ccc3ccccc3c2)NC(=NC2CCCCC2)NC2CCCCC2)CC(C)(C)NC(C)(C)C1 [M244A] | – | – | 12 µM | 5.0 | – |
| F5c-MFF-Arg [M826] | 76 µM | Inact | – | – | – |
| c[Ava-Igl-Ser-DF5F-Oic-Arg] [M824] | – | – | – | – | MTT: ED50 for killing of SCLC strain SHP-77 in vitro (SCLC strain SHP-77; Table 3, cyclic peptides): Inact; GPI: pA2 for bradykinin antagonist activity on isolated guinea pig ileum ([1]; Table 3, cyclic peptides): 5.2 |
| Moti-DArg-Arg-Pro-Hyp-Gly-Igl-Ser-DIgl-Oic-Arg [B10100-1] | 4 µM | 7.8 | – | – | – |
| c[DArg-Arg-Pro-Hyp-Gly-Igl-Ser-DIgl-Oic-Arg] [B10302] | – | – | – | – | MTT: ED50 for killing of SCLC strain SHP-77 in vitro (SCLC strain SHP-77; Table 3, cyclic peptides): Inact; GPI: pA2 for bradykinin antagonist activity on isolated guinea pig ileum ([1]; Table 3, cyclic peptides): 5.2 |
| CC1(C)CC(NC(=O)C(Cc2ccc(NS(C)(=O)=O)cc2)NC(=O)C=Cc2c(F)c(F)c(F)c(F)c2F)CC(C)(C)N1 (stereo not drawn) [M648] | – | – | Inact | 5.0 | – |
| BApG-DArg-Arg-Pro-Hyp-Gly-Igl-Ser-DIgl-Oic-Arg [B10084] | >20 µM | 8.1 | – | – | – |
| CC1(C)C=C(C(=O)NCCNC(=O)C(Cc2ccc3ccccc3c2)NC(=O)C=Cc2c(F)c(F)c(F)c(F)c2F)C(C)(C)N1 (stereo not drawn) [M268] | – | – | 10 µM | 5.2 | – |
| CN(C)c1ccc(C=CC(=O)NC(Cc2ccc3ccccc3c2)C(=O)NC2CC(C)(C)NC(C)(C)C2)cc1 (stereo not drawn) [M324] | – | – | 3 µM | 5.2 | – |
| F5c-DArg-Arg-Eac-Ser-DTic-Oic-Arg [M792] | >100 µM | 4.9 | – | – | – |
| CN(C)c1ccc(CNC(=O)C(Cc2ccc(F)cc2)NC(=O)C=Cc2c(F)c(F)c(F)c(F)c2F)cc1 (stereo not drawn) [M832] | – | – | 47 µM | 4.6 | – |
| c[DArg-Arg-Add-DF5F-Oic-Arg] [M870] | – | – | – | – | MTT: ED50 for killing of SCLC strain SHP-77 in vitro (SCLC strain SHP-77; Table 3, cyclic peptides): 5.5 µM; GPI: pA2 for bradykinin antagonist activity on isolated guinea pig ileum ([1]; Table 3, cyclic peptides): 5.3 |
| DArg-Arg-Pro-Hyp-Gly-Igl-Ser-DIgl-Oic-Arg-Eac-Eac-DArg-Arg-Pro-Hyp-Gly-Igl-Ser-DIgl-Oic-Arg [B10088] | 4 µM | 7.1 | – | – | – |
| DDD-(DArg-Arg-Aud-DTic-Oic-Arg)2 [M790] | 1.7 µM | Inact | – | – | – |
| c[DArg-Arg-Add-Ser-DF5F-Oic-Arg] [M874] | – | – | – | – | MTT: ED50 for killing of SCLC strain SHP-77 in vitro (SCLC strain SHP-77; Table 3, cyclic peptides): 11 µM; GPI: pA2 for bradykinin antagonist activity on isolated guinea pig ileum ([1]; Table 3, cyclic peptides): 5.0 |
| D-Arg-Arg-Aud-PaF(F5c)-Arg [M726] | Inact | 5.6 | – | – | – |
| Dpa-PFF-Arg [M816] | 52 µM | 4.6 | – | – | – |
| CC1(C)CC(NC(=O)[C@H](Cc2ccc3ccccc3c2)NC(=O)C(C2CCCCC2)C2CCCCC2)CC(C)(C)N1 [M276] | – | – | 4.6 µM | 5.3 | – |
| CC1(C)CC(NC(=O)C(Cc2ccc3ccccc3c2)NC(=O)CCSSCCC(=O)NC(Cc2ccc3ccccc3c2)C(=O)NC2CC(C)(C)NC(C)(C)C2)CC(C)(C)N1 (stereo not drawn) [M286] | – | – | 24 µM | 5.1 | – |
| CN(C)c1cccc2c(S(=O)(=O)NC(Cc3cc(I)c(OCc4c(Cl)cccc4Cl)c(I)c3)C(=O)N(C)C3CC(C)(C)NC(C)(C)C3)cccc12 (stereo not drawn) [M666] | – | – | 1.3 µM | 5.0 | – |
| (DArg-Arg-Pro-Hyp)2Dpr-Igl-Ser-DIgl-Oic-Arg [B10098] | 20 µM | 5.3 | – | – | – |

| Compound | MTT: ED50 for killing of SCLC strain SHP-77 in vitro (SCLC strain SHP-77; Table 1, SHP-77, MTT, 4 days) | GPI: pA2 for bradykinin antagonist activity on isolated guinea pig ileum [1, 2] | MTT: ED50 for killing of SCLC strain SHP-77 in vitro (SCLC strain SHP-77; SCLC strain SHP-77 in vitro) | GPI: pA2 for bradykinin antagonist activity on isolated guinea pig ileum [1, 3] | further results |
| --- | --- | --- | --- | --- | --- |
| F5c-Gly-mABz-2Nal-Arg [M196] | Inact | 5.1 | – | – | – |
| Ac-Darg-Arg-Aud-DF5F-Oic-Arg [M868] | 55 µM | 6.5 | – | – | – |
| DDD-(DArg-Arg-Aud-Ser-DIgl-Oic-Arg)2 [M858] | 4 µM | 6.3 | – | – | – |
| CN(C(=O)C(Cc1ccc(OCc2c(Cl)cccc2Cl)cc1)NC(=O)C=Cc1c(F)c(F)c(F)c(F)c1F)C1CC(C)(C)NC(C)(C)C1 (stereo not drawn) [M592] | – | – | 1.5 µM | 4.9 | – |
| DDD-(DIgl-hPhe-Arg)2 [M776] | 30 µM | 5 | – | – | – |
| CC1(C)CC(NC(=O)C(NC(=O)C=Cc2c(F)c(F)c(F)c(F)c2F)C(C)(C)C)CC(C)(C)N1 (stereo not drawn) [M662] | – | – | Inact | 5.2 | – |
| CC1(C)CC(NC(=O)[C@H](Cc2ccc3ccccc3c2)NC(=O)C(c2ccccc2)c2ccccc2)CC(C)(C)N1 [M272] | – | – | 9 µM | 5.2 | – |
| CC1(C)CC(NC(=O)[C@H](Cc2ccc3ccccc3c2)NC(=O)C=Cc2c(F)c(F)c(F)c(F)c2F)CC(C)(C)N1 [M248] | – | – | 3.2 µM | 6.2 | – |
| F5c-DArg-Arg-Aud-DIgl-PFF-Arg [M838] | 7.4 µM | 5.1 | – | – | – |
| DDD-(DArg-Arg-Eac-Ser-DF5F-Oic-Arg)2 [M804] | 7.3 µM | 7.7 | – | – | – |
| CN(C)c1ccc(C=CC(=O)NC(Cc2csc3ccccc23)C(=O)NC2CC(C)(C)NC(C)(C)C2)cc1 (stereo not drawn) [M448] | – | – | 2.7 µM | 5.7 | – |
| CC1(C)CC(NC(=O)[C@H](Cc2c[nH]c3ccccc23)NC(=NC2CCCCC2)NC2CCCCC2)CC(C)(C)N1 [M264] | – | – | 16 µM | 4.7 | – |
| CC1(C)CC(NC(=O)[C@H](Cc2ccc3ccccc3c2)NC(=O)C2=CN3CCC2CC3)CC(C)(C)N1 [M252] | – | – | Inact | 4.8 | – |
| DDD-(DArg-F5F-DArg)2 [M1036] | 40 µM | 5.4 | – | – | – |
| CN(C)c1cccc2c(S(=O)(=O)NC(Cc3ccc(OCc4c(Cl)cccc4Cl)cc3)C(=O)N(C)C3CC(C)(C)NC(C)(C)C3)cccc12 (stereo not drawn) [M624] | – | – | 1.4 µM | 5.1 | – |
| c[DArg-Arg-Ava-Ser-DF5F-Oic-Arg] [M908] | – | – | – | – | MTT: ED50 for killing of SCLC strain SHP-77 in vitro (SCLC strain SHP-77; Table 3, cyclic peptides): 40 µM; GPI: pA2 for bradykinin antagonist activity on isolated guinea pig ileum ([1]; Table 3, cyclic peptides): 4.9 |
| DDD-(DArg-PFF-Arg)2 [M820] | 43 µM | Inact | – | – | – |
| F5c-pABz-2Nal-Arg [M176] | Inact | 5.4 | – | – | – |
| Aca-c[DArg-Arg-Pro-Hyp-Gly-Thi-Ser-Nig-Oic-Arg] [B10304] | – | – | – | – | MTT: ED50 for killing of SCLC strain SHP-77 in vitro (SCLC strain SHP-77; Table 3, cyclic peptides): Inact; GPI: pA2 for bradykinin antagonist activity on isolated guinea pig ileum ([1]; Table 3, cyclic peptides): 6.4 |
| CC1(C)CC(NC(=O)C(Cc2ccc3ccccc3c2)NC(=O)COc2c(F)c(F)c(F)c(F)c2F)CC(C)(C)N1 (stereo not drawn) [M568] | – | – | 10 µM | 5.8 | – |
| F5c-DArg-Arg-Aud-DTic-Oic-Arg [M788] | 9 µM | 5 | – | – | – |
| F5c-NMF-Arg [M686] | 29 µM | 5.6 | – | – | – |
| CN(C(=O)C(Cc1ccc(OCc2c(Cl)cccc2Cl)cc1)NC(=O)C=Cc1cccnc1)C1CC(C)(C)NC(C)(C)C1 (stereo not drawn) [M626] | – | – | 3.7 µM | 4.8 | – |
| c[DArg-Arg-Aud-Ser-DF5F-Oic-Arg] [M876] | – | – | – | – | MTT: ED50 for killing of SCLC strain SHP-77 in vitro (SCLC strain SHP-77; Table 3, cyclic peptides): 22.5 µM; GPI: pA2 for bradykinin antagonist activity on isolated guinea pig ileum ([1]; Table 3, cyclic peptides): 5.4 |
| CN(C(=O)C(Cc1ccc(OCc2c(Cl)cccc2Cl)cc1)NC(=O)CCc1ccccc1)C1CC(C)(C)N(C)C(C)(C)C1 (stereo not drawn) [M652] | – | – | 7.5 µM | 5.7 | – |
